What all share (assay type): in vivo
Experiment [1] has as its system Okra Jassids (Amrasca bigutulla bigutulla). Particulars: for Percent control (%) of Okra Jassids, Nymphs + Adults, A01: A01 = 1 day after first spray; for Percent control (%) of Okra Jassids, Nymphs + Adults, A10: A10 (after 1st spray); for Percent control (%) of Okra Jassids, Nymphs + Adults, B03: B03 = 3 days after 2nd spray; for Percent control (%) of Okra Jassids, Nymphs + Adults, B07: B07 (after 2nd spray); for Percent control (%) of Okra Jassids, Nymphs + Adults, B10: B10 (after 2nd spray); for Percent control (%) of Okra Jassids, Nymphs + Adults, B14: B14 (after 2nd spray); for Percent control (%) of Okra Jassids, Nymphs + Adults, C03: C03 = 3 days after third spray; for Percent control (%) of Okra Jassids, Nymphs + Adults, C10: C10 (after third spray). From the text:
(§1) In this evaluation, feeding damage & insect population on Okra Leaves before and after sprays is averaged and analyzed for the test of significance. Application method: Three applications (application A, B and C) within an interval of 14 days.

Experiment [2] concerns Okra Aphids (Aphis gossypii). The settings on record: for Percent control (%) of Okra Aphids, Nymphs + Adults, A01: A01 = 1 day after first spray; for Percent control (%) of Okra Aphids, Nymphs + Adults, B03: B03 = 3 days after 2nd spray; for Percent control (%) of Okra Aphids, Nymphs + Adults, B07: B07 (after 2nd spray); for Percent control (%) of Okra Aphids, Nymphs + Adults, B10: B10 (after 2nd spray); for Percent control (%) of Okra Aphids, Nymphs + Adults, C03: C03 = 3 days after third spray; for Percent control (%) of Okra Aphids, Nymphs + Adults, C10: C10 (after third spray).
Text: as §1

The subject of experiment [3] is Corn FAW (Spodoptera frugiperda). The settings on record: for Percent control (%) A01: A01 = 1 day after first spray; for Percent control (%) A14: A14 = 14 days after 1st spray; for Percent control (%) B03: B03 = 3 days after 2nd spray; for Percent control (%) B07: B07 (after 2nd spray); for Percent control (%) B10: B10 (after 2nd spray); for Percent control (%) B21: B21 (after 2nd spray). From the text: Application method: Two applications (application A and B) within an interval of 14 days. A01=1 day after first spray, A14=14 days after 1st spray, B03=3 days after 2nd spray.

Where [4] appears, read: 25% reduced dose rate, gm a.i./ha: OSA 25, Flonicamid 75, Acephate+Imidacloprid 390, Flonicamid+Fipronil 75+37.5, Imidacloprid 18.3, Acetamiprid 11.2.
Where [5] appears, read: doses gm a.i./ha: OSA 25, Flonicamid 100, Acephate+Imidacloprid 520, Flonicamid+Fipronil 100+50, Imidacloprid 24.5, Acetamiprid 15.
Where [6] appears, read: reduced insecticide dose, gm a.i./ha: OSA 25, Flonicamid (Ulala) 75, Acephate+Imidacloprid 390, Flonicamid+Fipronil 75+37.5, Imidacloprid 18.3, Acetamiprid 11.2.
[7] abbreviates: 25% reduced dose of insecticide, gm a.i./ha: OSA 25, CTPR 22.5, Acephate 730, Novaluron 56, Novaluron+Lambda cyhalothrin 67.5, Novaluron+Emamectin 93.5.
The mark [8] stands for this setting: doses gm a.i./ha: OSA 25, CTPR 30, Acephate 970, Novaluron 75, Novaluron+Lambda cyhalothrin 90, Novaluron+Emamectin 125.

Read-outs that look alike come from different tables or passages of the source.

Turning to `O=[N+]([O-])NC1=NCCN1Cc1ccc(Cl)nc1` [Imidacloprid], in experiment [1] (setting [4]), the “Percent control (%) of Okra Jassids, Nymphs + Adults, A01” value was 56%; the “Percent control (%) of Okra Jassids, Nymphs + Adults, A10” value stood at 59.1%; the “Percent control (%) of Okra Jassids, Nymphs + Adults, B03” value is recorded as 61.5%; the “Percent control (%) of Okra Jassids, Nymphs + Adults, B07” value was found to be 62.5%. In experiment [1] (setting [4]), the “Percent control (%) of Okra Jassids, Nymphs + Adults, B10” value stood at 63.5%; the “Percent control (%) of Okra Jassids, Nymphs + Adults, B14” value came to 62.4%; the “Percent control (%) of Okra Jassids, Nymphs + Adults, C03” value is 64.6%; the “Percent control (%) of Okra Jassids, Nymphs + Adults, C10” value worked out at 66.1%. Besides, in experiment [1] (setting [5]), the “Percent control (%) of Okra Jassids, Nymphs + Adults, A01” value is given as 59.9%; the “Percent control (%) of Okra Jassids, Nymphs + Adults, A10” value was 64.6%; the “Percent control (%) of Okra Jassids, Nymphs + Adults, B03” value was determined as 68.5%; the “Percent control (%) of Okra Jassids, Nymphs + Adults, B07” value is reported as 71.7%. In experiment [1] (setting [5]), the “Percent control (%) of Okra Jassids, Nymphs + Adults, B10” value is 70.5%; the “Percent control (%) of Okra Jassids, Nymphs + Adults, B14” value was 66.2%; the “Percent control (%) of Okra Jassids, Nymphs + Adults, C03” value is 68.0%; the “Percent control (%) of Okra Jassids, Nymphs + Adults, C10” value is given as 73.0%. In experiment [2] (setting [5]), the “Percent control (%) of Okra Aphids, Nymphs + Adults, A01” value is 66.9%; the “Percent control (%) of Okra Aphids, Nymphs + Adults, B03” value came out at 80.7%; the “Percent control (%) of Okra Aphids, Nymphs + Adults, B07” value was 82.7%; the “Percent control (%) of Okra Aphids, Nymphs + Adults, B10” value worked out at 82.2%. In addition, in experiment [2] (setting [5]), the “Percent control (%) of Okra Aphids, Nymphs + Adults, C03” value came to 81.3% and the “Percent control (%) of Okra Aphids, Nymphs + Adults, C10” value was 82.6%. For the same compound, in experiment [2] (setting [6]), the “Percent control (%) of Okra Aphids, Nymphs + Adults, A01” value was 62.7%; the “Percent control (%) of Okra Aphids, Nymphs + Adults, B03” value is 74.4%; the “Percent control (%) of Okra Aphids, Nymphs + Adults, B07” value came out at 77.2%; the “Percent control (%) of Okra Aphids, Nymphs + Adults, B10” value is given as 79.1%. In experiment [2] (setting [6]), the “Percent control (%) of Okra Aphids, Nymphs + Adults, C03” value is on record as 75.4% and the “Percent control (%) of Okra Aphids, Nymphs + Adults, C10” value is recorded as 78%. Also, the “Percent control (%) of Okra Aphids, Nymphs + Adults, A10” value in experiment [2] (A10 (after 1st spray), doses gm a.i./ha: OSA 25, Flonicamid 100, Acephate+Imidacloprid 520, Flonicamid+Fipronil 100+50, Imidacloprid 24.5, Acetamiprid 15) is listed as 82%. In addition, the “Percent control (%) of Okra Aphids, Nymphs + Adults, A14” value in experiment [2] (A14 = 14 days after 1st spray, reduced insecticide dose, gm a.i./ha: OSA 25, Flonicamid (Ulala) 75, Acephate+Imidacloprid 390, Flonicamid+Fipronil 75+37.5, Imidacloprid 18.3, Acetamiprid 11.2) is 64.3%.
Consider `CNC(=O)c1cc(Cl)cc(C)c1NC(=O)c1cc(Br)nn1-c1ncccc1Cl` [CTPR, Chlorantraniliprole], for which, in experiment [3] (setting [7]), the “Percent control (%) A01” value is 57.1%, the “Percent control (%) A14” value is recorded as 66.8%, the “Percent control (%) B03” value was 75% and the “Percent control (%) B07” value stood at 77.2%. Moreover, in experiment [3] (setting [7]), the “Percent control (%) B10” value is given as 76.2% and the “Percent control (%) B21” value was 74.6%. Besides, in experiment [3] (setting [8]), the “Percent control (%) A01” value amounted to 67.6%, the “Percent control (%) A14” value was 75.2%, the “Percent control (%) B03” value is on record as 79.9% and the “Percent control (%) B07” value turned out to be 86.8%. Further, in experiment [3] (setting [8]), the “Percent control (%) B10” value is 88.9% and the “Percent control (%) B21” value was 87.0%.
In the case of `COP(=O)(NC(C)=O)SC` (stereo not drawn) [Acephate], in experiment [3] (setting [7]), the “Percent control (%) A01” value worked out at 46.8%, the “Percent control (%) A14” value turned out to be 50.3%, the “Percent control (%) B03” value was 62.1% and the “Percent control (%) B07” value amounted to 63.9%. In experiment [3] (setting [7]), the “Percent control (%) B10” value came to 64.1% and the “Percent control (%) B21” value is listed as 61.6%. In experiment [3] (setting [8]), the “Percent control (%) A01” value is recorded as 58.1%, the “Percent control (%) A14” value turned out to be 69.7%, the “Percent control (%) B03” value is reported as 76.4% and the “Percent control (%) B07” value worked out at 80.5%. In experiment [3] (setting [8]), the “Percent control (%) B10” value is 83.2% and the “Percent control (%) B21” value is 80.3%.
Consider `O=C(NC(=O)c1c(F)cccc1F)Nc1ccc(OC(F)(F)C(F)OC(F)(F)F)c(Cl)c1` (racemic) [Novaluron, (±)-1-[3-chloro-4-(1,1,2-trifluoro-2-trifluoro-methoxyethoxy)phenyl]-3-(2,6-difluorobenzoyl)urea], for which, in experiment [3] (setting [7]), the “Percent control (%) A01” value is reported as 59.3%, the “Percent control (%) A14” value was found to be 58.7%, the “Percent control (%) B03” value came to 68.9% and the “Percent control (%) B07” value came to 70.1%. Besides, in experiment [3] (setting [7]), the “Percent control (%) B10” value is on record as 74.6% and the “Percent control (%) B21” value was 73.9%. Also, in experiment [3] (setting [8]), the “Percent control (%) A01” value is 60.5%, the “Percent control (%) A14” value worked out at 72.5%, the “Percent control (%) B03” value is 79.9% and the “Percent control (%) B07” value turned out to be 88.8%. In addition, in experiment [3] (setting [8]), the “Percent control (%) B10” value is given as 88.9% and the “Percent control (%) B21” value is on record as 84.7%.

(Values after patent publication US20220322673A1, “Novel Agrochemical Combinations” (UPL LIMITED, priority 2019, published 2022).)
